Consider eleven compounds from ChEMBL document CHEMBL3045657, “Synthesis and biological evaluation of naphthalene, furan and pyrrole based chalcones as cytotoxic and antimicrobial agents” (2012).

Common to all, as to type: functional
In one experiment the test system is Staphylococcus aureus. The experiment can be described thus: Antibacterial activity against Staphylococcus aureus MTCC 96 after 24 hr by serial tube dilution method. The conditions noted are these: MTCC 96, 24 h.
The subject of another experiment is OVCAR. The experiment can be described thus: Cytotoxicity against Homo sapiens (human) OVCAR cells assessed as cell growth inhibition at 1 x 10^-5 M after 48 hr by SRB assay. The conditions noted are these: for inhibition of growth at 10 µM: read-out: GI. (In general: Sulforhodamine B stains cellular protein and so reports cell mass.)
In a further experiment the test system is Aspergillus niger. The experiment can be described thus: Antifungal activity against Aspergillus niger MTCC 1344 after 48 hr by serial tube dilution method. To be noted: MTCC 1344, 48 h.
A further experiment has as its system PC-3. The experiment can be described thus: Cytotoxicity against Homo sapiens (human) PC3 cells assessed as cell growth inhibition at 1 x 10^-5 M after 48 hr by SRB assay. To be noted: for inhibition of growth at 10 µM: PC-3, 48 h, read-out: GI.
The subject of the next experiment is Pseudomonas aeruginosa. In words: Antibacterial activity against Pseudomonas aeruginosa MTCC 2642 after 24 hr by serial tube dilution method. To be noted: MTCC 2642, 24 h.
In a further experiment the test system is Salmonella typhi. In words: Antibacterial activity against Salmonella enterica subsp. enterica serovar Typhi MTCC 1251 after 24 hr by serial tube dilution method. To be noted: MTCC 1251, 24 h.
In a further experiment the test system is Candida albicans. The experiment can be described thus: Antifungal activity against Candida albicans MTCC 3018 after 48 hr by serial tube dilution method. The conditions noted are these: MTCC 3018, 48 h.
The test system of another experiment is Escherichia coli. In words: Antibacterial activity against Escherichia coli MTCC 82 after 24 hr by serial tube dilution method. The conditions noted are these: MTCC 82, 24 h.
The subject of a further experiment is HEp-2. The experiment can be described thus: Cytotoxicity against Homo sapiens (human) Hep2 cells assessed as cell growth inhibition at 1 x 10^-5 M after 48 hr by SRB assay. The conditions noted are these: HEp-2, 48 h, read-out: GI.
In another experiment the test system is IMR-32. The experiment can be described thus: Cytotoxicity against Homo sapiens (human) IMR32 cells assessed as cell growth inhibition at 1 x 10^-5 M after 48 hr by SRB assay. To be noted: for inhibition of growth at 10 µM: IMR-32, 48 h, read-out: GI.
In the next experiment the test system is Bacillus subtilis. The experiment can be described thus: Antibacterial activity against Bacillus subtilis MTCC 2451 after 24 hr by serial tube dilution method. To be noted: MTCC 2451, 24 h.

Molecules are shown by their SMILES. Values after ≈ are worked out from the molar mass of the structure shown. Active and inactive are the calls of the source. The calls are words filed in the database; no cut-off is given here.

For `O=C(/C=C/c1cccc(Cl)c1Cl)c1ccc[nH]1`, the minimum inhibitory concentration (MIC) against Staphylococcus aureus was found to be 7.8 µg/mL (≈ 29.3 µM); in the experiment on Aspergillus niger, 125 µg/mL (≈ 470 µM); against Pseudomonas aeruginosa it was 7.8 µg/mL (≈ 29.3 µM); against Salmonella typhi, 15.6 µg/mL (≈ 58.6 µM); in the experiment on Candida albicans, 250 µg/mL (≈ 939 µM); against Escherichia coli it was 15.6 µg/mL (≈ 58.6 µM). The same compound registered a minimal inhibitory concentration (MIC) against Bacillus subtilis of 31.2 µg/mL (≈ 117 µM). Besides, the “growth inhibition (GI)” value in the experiment on OVCAR and in the experiment with IMR-32 was “inactive” each time. Further, the inhibition of growth at 10 µM with PC-3 amounted to 11%; with HEp-2 it was 15%.

Turning to `O=C(/C=C/c1ccc(Cl)cc1Cl)c1ccc[nH]1`, the MIC in the experiment on Staphylococcus aureus was determined as 7.8 µg/mL (≈ 29.3 µM); in the experiment on Aspergillus niger, 62.5 µg/mL (≈ 235 µM); with Pseudomonas aeruginosa, 31.2 µg/mL (≈ 117 µM); against Salmonella typhi, 15.6 µg/mL (≈ 58.6 µM); against Candida albicans it was 125 µg/mL (≈ 470 µM); in the experiment with Escherichia coli, 15.6 µg/mL (≈ 58.6 µM). Also, the lowest concentration to inhibit growth against Bacillus subtilis (MIC) was 15.6 µg/mL (≈ 58.6 µM). Also, the inhibition of growth at 10 µM in the experiment with OVCAR turned out to be 13%; in the experiment on HEp-2 it was 16%. Further, the “growth inhibition (GI)” value with PC-3 and in the experiment with IMR-32 was “inactive” throughout.

`COc1ccc(/C=C/C(=O)c2ccc3ccccc3c2)c(OC)c1OC`: the MIC against Staphylococcus aureus stood at 3.9 µg/mL (≈ 11.2 µM); in the experiment with Aspergillus niger it was 62.5 µg/mL (≈ 179 µM); with Pseudomonas aeruginosa it was 7.8 µg/mL (≈ 22.4 µM); in the experiment with Salmonella typhi it was 15.6 µg/mL (≈ 44.8 µM); against Candida albicans it was 125 µg/mL (≈ 359 µM); against Escherichia coli it was 15.6 µg/mL (≈ 44.8 µM). This compound also came in with an MIC in the experiment with Bacillus subtilis of 3.9 µg/mL (≈ 11.2 µM). In addition, the inhibition of growth at 10 µM in the experiment on OVCAR turned out to be 88%; in the experiment on PC-3, 81%; in the experiment on HEp-2, 72%; in the experiment with IMR-32, 75%.

In the case of `COc1ccc(OC)c(/C=C/C(=O)c2ccco2)c1`, the MIC against Staphylococcus aureus was 62.5 µg/mL (≈ 242 µM); against Aspergillus niger, 125 µg/mL (≈ 484 µM); against Pseudomonas aeruginosa, 31.2 µg/mL (≈ 121 µM); against Salmonella typhi, 62.5 µg/mL (≈ 242 µM); with Candida albicans, 125 µg/mL (≈ 484 µM); against Escherichia coli, 31.2 µg/mL (≈ 121 µM). The minimal inhibitory concentration (MIC) in the experiment with Bacillus subtilis came out at 31.2 µg/mL (≈ 121 µM). Besides, the “growth inhibition (GI)” value in the experiment on OVCAR was “inactive”. Moreover, the inhibition of growth at 10 µM in the experiment on PC-3 was found to be 23%; in the experiment on HEp-2, 29%; in the experiment with IMR-32, 31%.

In the case of `O=C(/C=C/c1c(Cl)cccc1Cl)c1ccc[nH]1`, the MIC was 15.6 µg/mL (≈ 58.6 µM) against Staphylococcus aureus; 125 µg/mL (≈ 470 µM) against Aspergillus niger; 31.2 µg/mL (≈ 117 µM) against Pseudomonas aeruginosa; 31.2 µg/mL (≈ 117 µM) in the experiment on Salmonella typhi; 125 µg/mL (≈ 470 µM) in the experiment on Candida albicans; 15.6 µg/mL (≈ 58.6 µM) with Escherichia coli. Further, in the experiment with Bacillus subtilis, the minimum inhibitory concentration (MIC) stood at 31.2 µg/mL (≈ 117 µM). Further, the “growth inhibition (GI)” value in the experiment on OVCAR and in the experiment on PC-3 was “inactive” throughout. Also, the inhibition of growth at 10 µM with HEp-2 is 16%; in the experiment with IMR-32 it was 12%.

Turning to `COc1ccc(/C=C/C(=O)c2ccc3ccccc3c2)cc1OC`, the MIC against Staphylococcus aureus was found to be 62.5 µg/mL (≈ 196 µM); against Aspergillus niger it was 250 µg/mL (≈ 785 µM); against Pseudomonas aeruginosa it was 125 µg/mL (≈ 393 µM); against Salmonella typhi, 62.5 µg/mL (≈ 196 µM); in the experiment on Candida albicans it was 500 µg/mL (≈ 1570 µM); in the experiment with Escherichia coli it was 125 µg/mL (≈ 393 µM). This compound had an MIC in the experiment with Bacillus subtilis of 62.5 µg/mL (≈ 196 µM). The inhibition of growth at 10 µM in the experiment with OVCAR was found to be 49%; with PC-3, 53%; in the experiment with HEp-2, 53%; in the experiment with IMR-32, 51%.

`COc1cc(/C=C/C(=O)c2ccc3ccccc3c2)cc(OC)c1OC`: the MIC worked out at 1.9 µg/mL (≈ 5.45 µM) with Staphylococcus aureus; 125 µg/mL (≈ 359 µM) in the experiment with Aspergillus niger; 15.6 µg/mL (≈ 44.8 µM) in the experiment on Pseudomonas aeruginosa; 15.6 µg/mL (≈ 44.8 µM) in the experiment with Salmonella typhi; 125 µg/mL (≈ 359 µM) against Candida albicans; 3.9 µg/mL (≈ 11.2 µM) against Escherichia coli. This compound also had an MIC in the experiment with Bacillus subtilis of 3.9 µg/mL (≈ 11.2 µM). Besides, the inhibition of growth at 10 µM with OVCAR is 87%; in the experiment with PC-3 it was 84%; in the experiment with HEp-2, 79%; in the experiment on IMR-32 it was 81%.

Take `COc1ccc(/C=C/C(=O)c2ccco2)cc1OC`: the MIC against Staphylococcus aureus is 31.2 µg/mL (≈ 121 µM); against Aspergillus niger, 125 µg/mL (≈ 484 µM); against Pseudomonas aeruginosa, 31.2 µg/mL (≈ 121 µM); against Salmonella typhi, 15.6 µg/mL (≈ 60.4 µM); against Candida albicans, 250 µg/mL (≈ 968 µM); against Escherichia coli, 15.6 µg/mL (≈ 60.4 µM). Also, in the experiment on Bacillus subtilis, the MIC was 31.2 µg/mL (≈ 121 µM). The “growth inhibition (GI)” value with OVCAR is “inactive”. Further, the inhibition of growth at 10 µM was 29% in the experiment with PC-3, 27% in the experiment with HEp-2 and 33% in the experiment on IMR-32.

In the case of `COc1ccc(/C=C/C(=O)c2ccco2)cc1O`, the MIC was determined as 31.2 µg/mL (≈ 128 µM) in the experiment with Staphylococcus aureus; 250 µg/mL (≈ 1020 µM) in the experiment with Aspergillus niger; 125 µg/mL (≈ 512 µM) in the experiment on Pseudomonas aeruginosa; 62.5 µg/mL (≈ 256 µM) in the experiment on Salmonella typhi; 250 µg/mL (≈ 1020 µM) against Candida albicans; 62.5 µg/mL (≈ 256 µM) against Escherichia coli. The MIC with Bacillus subtilis worked out at 62.5 µg/mL (≈ 256 µM). The inhibition of growth at 10 µM turned out to be 23% in the experiment on OVCAR, 21% with PC-3, 19% in the experiment with HEp-2 and 16% in the experiment with IMR-32.

For the compound `COc1cc(/C=C/C(=O)c2ccco2)cc(OC)c1OC`, the MIC came to 15.6 µg/mL (≈ 54.1 µM) in the experiment with Staphylococcus aureus; 62.5 µg/mL (≈ 217 µM) against Aspergillus niger; 15.6 µg/mL (≈ 54.1 µM) against Pseudomonas aeruginosa; 31.2 µg/mL (≈ 108 µM) in the experiment with Salmonella typhi; 62.5 µg/mL (≈ 217 µM) with Candida albicans; 62.5 µg/mL (≈ 217 µM) against Escherichia coli. In the experiment on Bacillus subtilis, this compound yielded an MIC of 31.2 µg/mL (≈ 108 µM). For the same compound, the inhibition of growth at 10 µM came to 28% with OVCAR, 42% with PC-3, 47% with HEp-2 and 49% with IMR-32.

As to `O=C(/C=C/c1cccc(Cl)c1Cl)c1ccc2ccccc2c1`, the minimum inhibitory concentration (MIC) against Staphylococcus aureus worked out at 31.2 µg/mL (≈ 95.4 µM); in the experiment with Aspergillus niger, 250 µg/mL (≈ 764 µM); in the experiment with Pseudomonas aeruginosa, 62.5 µg/mL (≈ 191 µM); against Salmonella typhi, 62.5 µg/mL (≈ 191 µM); in the experiment with Candida albicans, 250 µg/mL (≈ 764 µM); in the experiment with Escherichia coli, 31.2 µg/mL (≈ 95.4 µM). In the experiment on Bacillus subtilis, this compound had an MIC of 31.2 µg/mL (≈ 95.4 µM). Also, the inhibition of growth at 10 µM with OVCAR turned out to be 11%; with HEp-2 it was 9%. The “growth inhibition (GI)” value in the experiment on PC-3 and in the experiment with IMR-32 was “inactive” in each case.

For orientation: MIC means the lowest concentration found to suppress growth.
